Data published in paper PMC4816084 (Bioorganic & medicinal chemistry letters, 2016).
Where two headings read alike, the source gives them in different places. Blank lines part the entries; values can stand above or below the compound they belong to.

What was measured:
[1] = system: dizocilpine-induced prepulse inhibition deficits; settings: mouse, with D-serine exposure enhancement; cited from earlier work
[2] = cited from earlier work; for susceptibility to glucuronidation (in words): liver microsomes with UDPGA, 60 min
plasma D-serine levels [3] = settings: mice, oral co-administration with D-serine; cited from earlier work
[4] = mice; cited from earlier work
[5] = Metabolic stability in mouse liver microsomes; assay type: in vitro ADME; settings: for susceptibility to glucuronidation (in words): liver microsomes with UDPGA; for stability in the presence of NADPH (in words): mouse liver microsomes
[6] = Plasma pharmacokinetics after oral administration in mice; settings: 30 mg/kg po
[7] = Binding to mouse plasma protein; assay type: in vitro ADME
plasma D-serine levels [8] = test: Effect on D-serine plasma pharmacokinetics after oral co-administration in mice; assay type: in vivo; settings: inhibitor and D-serine both 30 mg/kg po
recombinant human DAAO = recombinant human DAAO (Homo sapiens, UniProt P14920); test: Inhibition of recombinant human DAAO; assay type: biochemical; settings: human DAAO IC50 ratio
Chain of recombinant human DAAO (P14920 whole entry): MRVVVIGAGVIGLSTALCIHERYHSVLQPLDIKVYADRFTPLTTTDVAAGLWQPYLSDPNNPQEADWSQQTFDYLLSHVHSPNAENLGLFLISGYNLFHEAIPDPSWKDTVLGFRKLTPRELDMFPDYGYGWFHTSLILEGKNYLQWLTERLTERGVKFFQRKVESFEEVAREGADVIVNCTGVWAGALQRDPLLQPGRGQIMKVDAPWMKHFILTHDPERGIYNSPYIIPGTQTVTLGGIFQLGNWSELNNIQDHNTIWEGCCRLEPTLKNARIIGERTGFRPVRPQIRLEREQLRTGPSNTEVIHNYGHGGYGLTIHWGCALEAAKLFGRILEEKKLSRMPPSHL

SMILES: O=c1[nH]oc2cc(Cl)ccc12 [CBIO, 6-chloro-1,2-benzisoxazol-3(2H)-one]
- effect on dizocilpine-induced prepulse inhibition deficits [1]: attenuation

SMILES: O=c1cc(CSc2ccc(Cl)c(Cl)c2)occ1O [Compound 1]
- susceptibility to glucuronidation (in words) [2]: extensively glucuronidated
- % remaining after 60 min w/UDPGA ([2]; mouse liver microsomes): 5%

SMILES: O=c1[nH]nc(CCc2cc(F)cc(F)c2)cc1O [Compound 2b]
- susceptibility to glucuronidation (in words) [2]: some degree of metabolic stability
- % remaining after 60 min w/NADPH ([2]; mouse liver microsomes, NADPH): 92%
- % remaining after 60 min w/UDPGA ([2]; mouse liver microsomes): 59%

SMILES: O=c1[nH]c(=O)n(Cc2cccc3ccccc23)nc1O [Compound 3]
- susceptibility to glucuronidation (in words) [2]: complete resistance to glucuronidation
- degree of enhancement in plasma D-serine levels (plasma D-serine levels [3]): 2.2 fold
- AUC following oral administration [4]: 12900 ng·h/mL

- susceptibility to glucuronidation (in words) [5]: resistant to glucuronidation
- stability in the presence of NADPH (in words) [5]: stable
- time of Cmax after administration [6]: 30 min
- binding to mouse plasma protein [7]: 74%
SMILES: O=c1[nH]nc(CCc2ccccc2)nc1O [Compound 6b, 6-hydroxy-3-phenethyl-1,2,4-triazin-5(2H)-one]
- D-serine AUC0–6hr on co-administration (plasma D-serine levels [8]): 74.2 µg·h/mL

- fold more potent than the corresponding meta-phenyl derivative 6k (recombinant human DAAO): 8 fold
SMILES: O=c1[nH]nc(SCc2ccc(-c3ccccc3)cc2)nc1O [Compound 6j]

- susceptibility to glucuronidation (in words) [5]: resistant to glucuronidation
- stability in the presence of NADPH (in words) [5]: stable
SMILES: O=c1[nH]nc(SCc2ccc3cc(F)ccc3c2)nc1O [Compound 6m, 3-((6-fluoronaphthalen-2-yl)methylthio)-6-hydroxy-1,2,4-triazin-5(2H)-one]
